In the supplement of paper PMC11208160:

Columns and labels:
[1] = recombinant barcode read abundance after kanamycin selection (control-corrected) (log10(CPM+1)); higher = more efficient recombination; sequences stand for … in AGTGCAGAGAAAATCGGCCAGTTTTCTCTGCCTGCAGTCCGCATGCCGT…ATTTATGCAGCGGACTGCCTTTCTCCCAAAGTGATAAACCGGACAGTATCATGGACCGGTTTTCCCGGTAATCCGTATTTGCAAGGTTGGTTTCACT; site = the 11-nt target
Procedure: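 Same pooled E. coli target screen (IS621 bridge recombinase, kanamycin selection, control-corrected CPM, mean of 2 biological replicates). Here the two core-binding nucleotides of the LTG and RTG of the bridge RNA target-binding loop are mutated. Target and donor CT cores are held constant, and the other 9 guide positions match the target. The target is read from the library oligo sequence. Molecule = full bridge RNA written as DNA: nt 1-80 from the library oligo, rest WT scaffold.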

[2] = recombinant barcode read abundance after kanamycin selection (control-corrected) (log10(CPM+1)); higher = more efficient recombination; sequences stand for … in AGTGCAGAGAAAATCGGCCAGTTTTCTCTGCCTGCAGTCCGCATGCCGT…AGATTTATGCAGCGGACTGCCTTTCTCCCAAAGTGATAAACCGGACAGTATCATGGACCGGTTTTCCCGGTAATCCGTATTTGCAAGGTTGGTTTCACT; site = the 11-nt target
Method in brief: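 Pooled oligos, each joining a target to an IS621 bridge RNA target-binding loop, were cloned and co-electroporated with a donor plasmid into E. coli. Selective plates carried chloramphenicol/ampicillin/kanamycin and 0.1 mM IPTG, while chloramphenicol/ampicillin LB agar served as control, with two replicates of each. Recombination efficiency rests on averaged, control-corrected counts per million of barcodes at recombinant junctions, shown as log10(CPM+1).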

AAACACACATGGGTTCTAACCTGTTGCCTAG [AAACACACTAG_LTGcore_CA_RTGcore_CT] (site AAACACACTAG) (LTG core: CA, RTG core: CT)
recombinant barcode read abundance (log10) [1]: 0.327

TTAGCATCTTGGGTTCTAACCTGTTGCCT (site TTAGCATCTAG)
recombinant barcode read abundance (log10) [2]: 0.589

TTAGCATCTTGGGTTCTAACCTGTTGCCT (site TTAGCCTCTAG)
recombinant barcode read abundance (log10) [2]: 0.412

TTAGCATCTTGGGTTCTAACCTGTTGCCT (site TTAGCGTCTAG)
recombinant barcode read abundance (log10) [2]: 0.161

TTAGCATCTTGGGTTCTAACCTGTTGCCT (site TTAGCTTCTAG)
recombinant barcode read abundance (log10) [2]: 0.0531

TTAGGGTCTTGGGTTCTAACCTGTTGCCT (site TTAGGGACTAG)
recombinant barcode read abundance (log10) [2]: 0.252

TTAGGGTCTTGGGTTCTAACCTGTTGCCT (site TTAGGGCCTAG)
recombinant barcode read abundance (log10) [2]: 1.17

TTAGGGTCTTGGGTTCTAACCTGTTGCCT (site TTAGGGGCTAG)
recombinant barcode read abundance (log10) [2]: 0.0984

TTAGGGTCTTGGGTTCTAACCTGTTGCCT (site TTAGGGTCTAG)
recombinant barcode read abundance (log10) [2]: 2.15

TTAGTCGCTTGGGTTCTAACCTGTTGCCT (site TTAGTAGCTAG)
recombinant barcode read abundance (log10) [2]: 0.191

TTAGTCGCTTGGGTTCTAACCTGTTGCCT (site TTAGTCGCTAG)
recombinant barcode read abundance (log10) [2]: 2.28

TTAGTCGCTTGGGTTCTAACCTGTTGCCT (site TTAGTGGCTAG)
recombinant barcode read abundance (log10) [2]: 0.134

TTAGTCGCTTGGGTTCTAACCTGTTGCCT (site TTAGTTGCTAG)
recombinant barcode read abundance (log10) [2]: 0.0472

TTAGTTGCTTGGGTTCTAACCTGTTGCCT (site TTAGTAGCTAG)
recombinant barcode read abundance (log10) [2]: 0.225

TTAGTTGCTTGGGTTCTAACCTGTTGCCT (site TTAGTCGCTAG)
recombinant barcode read abundance (log10) [2]: 0.0596

TTAGTTGCTTGGGTTCTAACCTGTTGCCT (site TTAGTGGCTAG)
recombinant barcode read abundance (log10) [2]: 0.0286

TTAGTTGCTTGGGTTCTAACCTGTTGCCT (site TTAGTTGCTAG)
recombinant barcode read abundance (log10) [2]: 1.4

TTCAACTCTTGGGTTCTAACCTGTTGCGT (site TTCAACTCTAC)
recombinant barcode read abundance (log10) [2]: 1.56

TTCAACTCTTGGGTTCTAACCTGTTGCGT (site TTCAAGTCTAC)
recombinant barcode read abundance (log10) [2]: 0.0543

TTCAAGCCTTGGGTTCTAACCTGTTGCGT (site TTCAAGCCTAC)
recombinant barcode read abundance (log10) [2]: 1.17

TTCAAGCCTTGGGTTCTAACCTGTTGCGT (site TTCAAGCCTCC)
recombinant barcode read abundance (log10) [2]: 0.0397

TTCAGCCCTTGGGTTCTAACCTGTTGCCT (site TACAGCCCTAG)
recombinant barcode read abundance (log10) [2]: 0.456

TTCAGCCCTTGGGTTCTAACCTGTTGCCT (site TTCAGCCCTAG)
recombinant barcode read abundance (log10) [2]: 0.679

TTCAGTCCTTGGGTTCTAACCTGTTGCAT (site TTAAGTCCTAG)
recombinant barcode read abundance (log10) [2]: 0

TTCAGTCCTTGGGTTCTAACCTGTTGCAT (site TTCAGTCCTAT)
recombinant barcode read abundance (log10) [2]: 0.509

TTCATGTCTTGGGTTCTAACCTGTTGCCT (site TTCACGTCTAG)
recombinant barcode read abundance (log10) [2]: 0.0724

TTCATGTCTTGGGTTCTAACCTGTTGCCT (site TTCATGTCTAG)
recombinant barcode read abundance (log10) [2]: 0.811

TTCCGTCCTTGGGTTCTAACCTGTTGCTT (site CGAGTGACTTG)
recombinant barcode read abundance (log10) [2]: 0.0499

TTCCGTCCTTGGGTTCTAACCTGTTGCTT (site TTCCGTCCTAA)
recombinant barcode read abundance (log10) [2]: 0.0911

TTCTATGCTTGGGTTCTAACCTGTTGCCT (site TCCTGTGCTAG)
recombinant barcode read abundance (log10) [2]: 0.24

TTCTATGCTTGGGTTCTAACCTGTTGCCT (site TTCTATGCTAG)
recombinant barcode read abundance (log10) [2]: 0.187

TTCTTCCCTTGGGTTCTAACCTGTTGCCT (site TTCTTCCCTAG)
recombinant barcode read abundance (log10) [2]: 0.235

TTCTTCCCTTGGGTTCTAACCTGTTGCCT (site TTGTACCCTAG)
recombinant barcode read abundance (log10) [2]: 0.1

TTGAATGCTTGGGTTCTAACCTGTTGCCT (site TTGAATGCTAG)
recombinant barcode read abundance (log10) [2]: 1.15

TTGAATGCTTGGGTTCTAACCTGTTGCCT (site TTGACTGCTAG)
recombinant barcode read abundance (log10) [2]: 0.0516

TTGAATGCTTGGGTTCTAACCTGTTGCCT (site TTGAGTGCTAG)
recombinant barcode read abundance (log10) [2]: 0.0419

TTGAATGCTTGGGTTCTAACCTGTTGCCT (site TTGATTGCTAG)
recombinant barcode read abundance (log10) [2]: 0.214

TTGAGGACTTGGGTTCTAACCTGTTGCGT (site TTGAGGACTAC)
recombinant barcode read abundance (log10) [2]: 2.22

TTGAGGACTTGGGTTCTAACCTGTTGCGT (site TTGAGGACTTG)
recombinant barcode read abundance (log10) [2]: 0.147

TTGATTACTTGGGTTCTAACCTGTTGCCA (site TTGAGTACTCG)
recombinant barcode read abundance (log10) [2]: 0.0598

TTGATTACTTGGGTTCTAACCTGTTGCCA (site TTGATTACTTG)
recombinant barcode read abundance (log10) [2]: 0.0149

TTGCCGACTTGGGTTCTAACCTGTTGCCA (site TTGACGACTTG)
recombinant barcode read abundance (log10) [2]: 0.608

TTGCCGACTTGGGTTCTAACCTGTTGCCA (site TTGCCGACTTG)
recombinant barcode read abundance (log10) [2]: 0.503

TTGCCGACTTGGGTTCTAACCTGTTGCCA (site TTGGCGACTTG)
recombinant barcode read abundance (log10) [2]: 0.0806

TTGCCGACTTGGGTTCTAACCTGTTGCCA (site TTGTCGACTTG)
recombinant barcode read abundance (log10) [2]: 0.116

TTGCCTTCTTGGGTTCTAACCTGTTGCCT (site TAGCCTTCTAG)
recombinant barcode read abundance (log10) [2]: 0.106

TTGCCTTCTTGGGTTCTAACCTGTTGCCT (site TCGCCTTCTAG)
recombinant barcode read abundance (log10) [2]: 0.0687

TTGCCTTCTTGGGTTCTAACCTGTTGCCT (site TGGCCTTCTAG)
recombinant barcode read abundance (log10) [2]: 0.606

TTGCCTTCTTGGGTTCTAACCTGTTGCCT (site TTGCCTTCTAG)
recombinant barcode read abundance (log10) [2]: 0.686

TTGGCAGCTTGGGTTCTAACCTGTTGCCT (site TTGGAAGCTAG)
recombinant barcode read abundance (log10) [2]: 0.061

TTGGCAGCTTGGGTTCTAACCTGTTGCCT (site TTGGCAGCTAG)
recombinant barcode read abundance (log10) [2]: 2.08

TTGGCAGCTTGGGTTCTAACCTGTTGCCT (site TTGGGAGCTAG)
recombinant barcode read abundance (log10) [2]: 0.11

TTGGCAGCTTGGGTTCTAACCTGTTGCCT (site TTGGTAGCTAG)
recombinant barcode read abundance (log10) [2]: 0.0352

TTGGCCTCTTGGGTTCTAACCTGTTGCCT (site GTGGCGTCTAG)
recombinant barcode read abundance (log10) [2]: 0.15

TTGGCCTCTTGGGTTCTAACCTGTTGCCT (site TTGGCCTCTAG)
recombinant barcode read abundance (log10) [2]: 1.27

TTGGCGACTTGGGTTCTAACCTGTTGCCA (site TTGACGACTTG)
recombinant barcode read abundance (log10) [2]: 0.221

TTGGCGACTTGGGTTCTAACCTGTTGCCA (site TTGCCGACTTG)
recombinant barcode read abundance (log10) [2]: 0.0473

TTGGCGACTTGGGTTCTAACCTGTTGCCA (site TTGGCGACTTG)
recombinant barcode read abundance (log10) [2]: 0.118

TTGGCGACTTGGGTTCTAACCTGTTGCCA (site TTGTCGACTTG)
recombinant barcode read abundance (log10) [2]: 0.0276

TTGGGAGCTTGGGTTCTAACCTGTTGCTG (site TTCGGAGCTCA)
recombinant barcode read abundance (log10) [2]: 0.426

TTGGGAGCTTGGGTTCTAACCTGTTGCTG (site TTGGGAGCTCA)
recombinant barcode read abundance (log10) [2]: 2.92

TTGGTACCTTGGGTTCTAACCTGTTGCCT (site TTGGTACCTAG)
recombinant barcode read abundance (log10) [2]: 2.41

TTGGTACCTTGGGTTCTAACCTGTTGCCT (site TTGGTCCCTAG)
recombinant barcode read abundance (log10) [2]: 0.204

TTGGTACCTTGGGTTCTAACCTGTTGCCT (site TTGGTGCCTAG)
recombinant barcode read abundance (log10) [2]: 0.138

TTGGTACCTTGGGTTCTAACCTGTTGCCT (site TTGGTTCCTAG)
recombinant barcode read abundance (log10) [2]: 0.116

TTGGTAGCTTGGGTTCTAACCTGTTGCCT (site TTGGAAGCTAG)
recombinant barcode read abundance (log10) [2]: 0.255

TTGGTAGCTTGGGTTCTAACCTGTTGCCT (site TTGGCAGCTAG)
recombinant barcode read abundance (log10) [2]: 0.148

TTGGTAGCTTGGGTTCTAACCTGTTGCCT (site TTGGGAGCTAG)
recombinant barcode read abundance (log10) [2]: 0.127

TTGGTAGCTTGGGTTCTAACCTGTTGCCT (site TTGGTAGCTAG)
recombinant barcode read abundance (log10) [2]: 1.63

TTGGTGCCTTGGGTTCTAACCTGTTGCCT (site TTGGTACCTAG)
recombinant barcode read abundance (log10) [2]: 1.97

TTGGTGCCTTGGGTTCTAACCTGTTGCCT (site TTGGTCCCTAG)
recombinant barcode read abundance (log10) [2]: 0.0442

TTGGTGCCTTGGGTTCTAACCTGTTGCCT (site TTGGTGCCTAG)
recombinant barcode read abundance (log10) [2]: 2.13

TTGGTGCCTTGGGTTCTAACCTGTTGCCT (site TTGGTTCCTAG)
recombinant barcode read abundance (log10) [2]: 0.0399

TTGTACCCTTGGGTTCTAACCTGTTGCCT (site TTCTTCCCTAG)
recombinant barcode read abundance (log10) [2]: 0

TTGTACCCTTGGGTTCTAACCTGTTGCCT (site TTGTACCCTAG)
recombinant barcode read abundance (log10) [2]: 1.45

TTGTCGTCTTGGGTTCTAACCTGTTGCCT (site ATGTAGTCTAG)
recombinant barcode read abundance (log10) [2]: 0.0378

TTGTCGTCTTGGGTTCTAACCTGTTGCCT (site TTGTCGTCTAG)
recombinant barcode read abundance (log10) [2]: 1.25

TTGTGAGCTTGGGTTCTAACCTGTTGCGC (site AGTCACACTCT)
recombinant barcode read abundance (log10) [2]: 0.182

TTGTGAGCTTGGGTTCTAACCTGTTGCGC (site TTGTGAGCTGC)
recombinant barcode read abundance (log10) [2]: 1.68
